Reference: patent US20240043448A1, “Small Molecule Inhibitors of KRAS G12C Mutant” (Merck Sharp & Dohme LLC, priority 2019, published 2024)
Read-outs that look alike come from different tables or passages of the source.

Key:
[1] = molecular target: Biotinylated KRAS G12C protein (Homo sapiens (Human), UniProt P01116, C118S/C51S/C80L/G12C); assay: SOS-catalyzed nucleotide exchange assay (TR-FRET); type: biochemical; details: in vitro apparent potency; preincubation time of 60 minutes prior to addition of SOS
Protocol: The SOS-catalyzed nucleotide exchange assay utilizes a preformed complex of recombinant biotinylated KRAS protein containing G12C/C51S/C80L/C118S mutations (183 amino acids; biotin on K10; leader sequence which is an AviTag; referred to as SEQ ID NO: 1 or “Biotinylated KRAS G12C protein” hereafter), Bodipy-GDP, and Terbium-streptavidin. Compounds are added to this complex and then after incubation for 60 minutes, the mixture is treated with recombinant SOS protein and unlabeled GTP. Small molecule inhibitors stabilize the Bodipy-GDP complex whereas the untreated protein rapidly exchanges Bodipy-GDP for unlabeled GTP resulting in reduced TR-FRET signal.
Biotinylated KRAS G12C protein (SEQ ID NO: 1) is diluted to 2 μM in an EDTA buffer (20 mM HEPES, 150 mM sodium chloride, 10 mM EDTA, and 0.01% Tween) and incubated at room temperature for one hour. This mixture is then further diluted to 90 nM in an assay buffer (20 mM HEPES, 150 mM sodium chloride, 10 mM magnesium chloride, and 0.005% Tween) containing 15 nM of Terbium-Streptavidin (Invitrogen, catalog #PV3577) and 900 nM of Bodipy-GDP and incubated at room temperature for six hours. This solution is referred to as Biotinylated KRAS G12C mixture.
Each test compound (10 mM stock in DMSO) is diluted in DMSO to make a 10-point, 3-fold dilution series in a 384-well low dead volume microplate (Labcyte, catalog #LP-0200). Once titrations are made, 10 nL of the diluted compounds is acoustically dispensed into a 384-well plate (Corning, catalog #3820) using an Echo 550 (Labcyte).
Each well of the plate receives 3 μL Biotinylated KRAS G12C mixture that had been incubating for six hours and 3 μL of assay buffer using a BioRAPTR (Beckman Coulter) and is incubated at room temperature for 60 minutes. Each well then receives 3 μL of 240 nM recombinant human SOS protein and 9 mM GTP (Sigma, G8877) in assay buffer and is incubated at room temperature for 60 minutes.
The time-resolved fluorescence resonance energy transfer signal of the plate is measured on an Envision (PerkinElmer) plate reader: Excitation filter=340 nm; emission1=495 nm; emission2=520 nm; dichroic mirror=D400/D505; delay time=100 μs. The signal of each well is determined as the ratio of the emission at 520 nm to that at 495 nm. Percent effect of each well is determined after normalization to control wells containing DMSO (no effect) or a saturating concentration of inhibitor (max effect). The apparent effect as a function of compound concentration is fit to a four parameter logistic equation.

[2] = tested on: phospho-ERK; assay: Cellular phospho-ERK assay; type: cell-based; details: NCI-H358 cells, 2 hour incubation, ratio of p-Erk vs total Erk, read-out: IC50 (nM) pERK (Cell)
Protocol: NCI-H358 cells (ATCC® CRL-5807™) were cultured in T150 flask in growth medium (RPMI medium 1640-GlutaMAX™-I (ThermoFisher Scientific 61870) containing 10% fetal bovine serum (ThermoFisher Scientific 10091148)). The cells were harvested in growth medium after TrypLE (ThermoFisher scientific 12604021) digestion and were seeded in a 384-well collagen coated cell culture plate (Corning 356702) at a density of 15,000 cells/well, and incubated at 37° C., 5% CO2 overnight. The compound dose-response titrations were prepared and appropriate amounts of compounds were dispensed in a 384-well intermediate plate using an Echo 550 liquid handler. RPMI medium 1640-GlutaMAX™-I were added to the intermediate plate and transferred to 384-well cell culture plate, which was incubated at 37° C., 5% CO2 for 2 hours. After removal of medium from the plate, cells were lysed in lysis buffer from Alpha SureFire® Ultra™ Multiplex p-Erk and total Erk assay kit (PerkinElmer MPSU-PTERK) containing Halt™ Protease and Phosphotase inhibitor cocktail (ThermoFisher Scientific 78446) at room temperature with constant shaking at 300 rpm for 30 minutes. The cell lysates were then transferred to OptiPlate-384 plate (PerkinElmer 6005620) and the phosphorylation of Erk and total Erk levels were detected by Alpha SureFire Ultra Multiplex p-Erk kit (PerkinElmer MPSU-PTERK) following the manufacturer's protocol. Assay plates were read on an EnVision Multimode Plate Reader (PerkinElmer), and the ratio of p-Erk vs total Erk in each well was used as the final readout. Dose response curves were analyzed using a 4-parameter logistic model to calculate IC50 values using spotfire software.

Sequence of Biotinylated KRAS G12C protein (P01116 other isoform, or with tags, fused parts or gaps, stated change not applied): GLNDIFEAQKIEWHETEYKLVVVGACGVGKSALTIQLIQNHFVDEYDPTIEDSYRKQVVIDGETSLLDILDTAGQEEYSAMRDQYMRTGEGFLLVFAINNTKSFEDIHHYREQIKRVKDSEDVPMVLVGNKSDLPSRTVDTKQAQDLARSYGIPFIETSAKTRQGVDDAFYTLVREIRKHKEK

IC50 [1] [nM] | IC50 ([2]; Homo sapiens, NCI-H358, 2 h) [nM] | SMILES | IC50 [2] [nM]
35 | 149 | C=CC(=O)N1CCN(c2nc(=O)n3c4nc(c(F)cc24)-c2c(F)cccc2OCCCc2ccnc(C(C)C)c2-3)C(C)(C)C1 [Example 102, 2-[2,2-dimethyl-4-(prop-2-enoyl)piperazin-1-yl]-17,20-difluoro-6-(propan-2-yl)-11,12-dihydro-4H,10H-1,18-ethenopyrido[4,3-e]pyrimido[1,6-g][1,7,9] benzoxadiazacyclododecin-4-one] | 
1910 | 3600 | C=CC(=O)N1CC2CCC1CN2c1nc(=O)n2c3nc(c(F)cc13)-c1c(F)cccc1OCCCc1ccnc(C(C)C)c1-2 (stereo not shown) [Example 105, 17,20-difluoro-6-(propan-2-yl)-2-[5-(prop-2-enoyl)-2,5-diazabicyclo[2.2.2]octan-2-yl]-11,12-dihydro-4H,10H-1,18-ethenopyrido[4,3-e]pyrimido[1,6-g][1,7,9]benzoxadiazacyclododecin-4-one] | 
12 | 22 | C=CC(=O)N1CCN(c2nc(=O)n3c4nc(c(F)cc24)-c2c(F)cccc2OCCCc2ccnc(C(C)C)c2-3)C(C(F)F)C1 (stereo not shown) [Example 99, 2-[2-(difluoromethyl)-4-(prop-2-enoyl)piperazin-1-yl]-17,20-difluoro-6-(propan-2-yl)-11,12-dihydro-4H,10H-1,18-ethenopyrido[4,3-e]pyrimido[1,6-g][1,7,9]benzoxadiazacyclododecin-4-one] | 
2.6 | 54 | C=CC(=O)N1C[C@H](C)N(c2nc(=O)n3c4nc(c(F)cc24)-c2c(cc(F)c(F)c2F)OCCCc2ccnc(C(C)C)c2-3)C[C@H]1C [Example 80, 2-[(2S,5R)-2,5-dimethyl-4-(prop-2-enoyl)piperazin-1-yl]-15,16,17,20-tetrafluoro-6-(propan-2-yl)-11,12-dihydro-4H,10H-1,18-ethenopyrido[4,3-d]pyrimido[1,6-g][1,7,9]benzoxadiazacyclododecin-4-one] | 
10 |  | C=CC(=O)N1CCN(c2nc(=O)n3c4nc(c(F)cc24)-c2c(F)cccc2OCCCCc2cnc(C(C)C)c-3c2)[C@H](C)C1 [Example 16b, 19,22-difluoro-2-[(2S)-2-methyl-4-(prop-2-enoyl)piperazin-1-yl]-7-(propan-2-yl)-11,12,13,14-tetrahydro-4H-1,20-(ethanediylidene)-6,10-(metheno)pyrimido[1,6-k][1,8,11,13]benzoxatriazacyclohexadecin-4-one] | 109

SMILES | IC50 [1] [nM] | IC50 ([2]; Homo sapiens, NCI-H358, 2 h) [nM] | IC50 [2] [nM]
C=CC(=O)N1CC(C)N(c2nc(=O)n3c4nc(c(Cl)cc24)-c2c(F)ccc(F)c2OCCOc2ccnc(C(C)C)c2-3)CC1C [Example 50, (5aSa,17aRa)-20-chloro-2-[(2S,5R)-2,5-dimethyl-4-(prop-2-enoyl)piperazin-1-yl]-14,17-difluoro-6-(propan-2-yl)-11,12-dihydro-4H-1,18-(ethanediylidene)pyrido[4,3-e]pyrimido[1,6-g][1,4,7,9]benzodioxadiazacyclododecin-4-one] | 1.1 |  | 4.4
C=CC(=O)N1CCN(c2nc(=O)n3c4nc(c(F)cc24)-c2c(F)cccc2OCCCCc2ccnc(C(C)C)c2-3)[C@H](C)C1 [Example 4b, 18,21-Difluoro-2-[(2S)-2-methyl-4-(prop-2-enoyl)piperazin-1-yl]-6-(propan-2-yl)-10,11,12,13-tetrahydro-4H-1,19-ethenopyrido[4,3-f]pyrimido[1,6-h][1,8,10]benzoxadiazacyclotridecin-4-one] | 6890 |  | 1160
C=CC(=O)N1C[C@H](C)N(c2nc(=O)n3c4nc(c(F)cc24)-c2c(ccc(F)c2F)OCCC(C)c2ccnc(C(C)C)c2-3)C[C@H]1C (stereo partly drawn) [Example 90, 2-[(2S,5R)-2,5-dimethyl-4-(prop-2-enoyl)piperazin-1-yl]-16,17,20-trifluoro-10-methyl-6-(propan-2-yl)-11,12-dihydro-4H,10H-1,18-ethenopyrido[4,3-e]pyrimido[1,6-g][1,7,9]benzoxadiazacyclododecin-4-one] | 1.4 | 6.8 | 
